We go through 80 compounds from US10035801B2, “Pyrazolo compounds and uses thereof” (CONSTELLATION PHARMACEUTICALS, INC., priority 2013, dated 2018).

Like-named read-outs stand apart in the source and are kept apart here.

The assay addresses T1, KDM5A (Homo sapiens, UniProt P29375).
T1 construct: Full length KDM5A enzyme was expressed and purified inhouse; made in house
In words: KDM5 enzyme assay, KDM5A HTRF (Example 463). The format is biochemical.

[1] abbreviates: compounds of Examples 1-432, read-out: Example 463 Assay KDM5A HTRF IC50.

T1 sequence (P29375 whole entry): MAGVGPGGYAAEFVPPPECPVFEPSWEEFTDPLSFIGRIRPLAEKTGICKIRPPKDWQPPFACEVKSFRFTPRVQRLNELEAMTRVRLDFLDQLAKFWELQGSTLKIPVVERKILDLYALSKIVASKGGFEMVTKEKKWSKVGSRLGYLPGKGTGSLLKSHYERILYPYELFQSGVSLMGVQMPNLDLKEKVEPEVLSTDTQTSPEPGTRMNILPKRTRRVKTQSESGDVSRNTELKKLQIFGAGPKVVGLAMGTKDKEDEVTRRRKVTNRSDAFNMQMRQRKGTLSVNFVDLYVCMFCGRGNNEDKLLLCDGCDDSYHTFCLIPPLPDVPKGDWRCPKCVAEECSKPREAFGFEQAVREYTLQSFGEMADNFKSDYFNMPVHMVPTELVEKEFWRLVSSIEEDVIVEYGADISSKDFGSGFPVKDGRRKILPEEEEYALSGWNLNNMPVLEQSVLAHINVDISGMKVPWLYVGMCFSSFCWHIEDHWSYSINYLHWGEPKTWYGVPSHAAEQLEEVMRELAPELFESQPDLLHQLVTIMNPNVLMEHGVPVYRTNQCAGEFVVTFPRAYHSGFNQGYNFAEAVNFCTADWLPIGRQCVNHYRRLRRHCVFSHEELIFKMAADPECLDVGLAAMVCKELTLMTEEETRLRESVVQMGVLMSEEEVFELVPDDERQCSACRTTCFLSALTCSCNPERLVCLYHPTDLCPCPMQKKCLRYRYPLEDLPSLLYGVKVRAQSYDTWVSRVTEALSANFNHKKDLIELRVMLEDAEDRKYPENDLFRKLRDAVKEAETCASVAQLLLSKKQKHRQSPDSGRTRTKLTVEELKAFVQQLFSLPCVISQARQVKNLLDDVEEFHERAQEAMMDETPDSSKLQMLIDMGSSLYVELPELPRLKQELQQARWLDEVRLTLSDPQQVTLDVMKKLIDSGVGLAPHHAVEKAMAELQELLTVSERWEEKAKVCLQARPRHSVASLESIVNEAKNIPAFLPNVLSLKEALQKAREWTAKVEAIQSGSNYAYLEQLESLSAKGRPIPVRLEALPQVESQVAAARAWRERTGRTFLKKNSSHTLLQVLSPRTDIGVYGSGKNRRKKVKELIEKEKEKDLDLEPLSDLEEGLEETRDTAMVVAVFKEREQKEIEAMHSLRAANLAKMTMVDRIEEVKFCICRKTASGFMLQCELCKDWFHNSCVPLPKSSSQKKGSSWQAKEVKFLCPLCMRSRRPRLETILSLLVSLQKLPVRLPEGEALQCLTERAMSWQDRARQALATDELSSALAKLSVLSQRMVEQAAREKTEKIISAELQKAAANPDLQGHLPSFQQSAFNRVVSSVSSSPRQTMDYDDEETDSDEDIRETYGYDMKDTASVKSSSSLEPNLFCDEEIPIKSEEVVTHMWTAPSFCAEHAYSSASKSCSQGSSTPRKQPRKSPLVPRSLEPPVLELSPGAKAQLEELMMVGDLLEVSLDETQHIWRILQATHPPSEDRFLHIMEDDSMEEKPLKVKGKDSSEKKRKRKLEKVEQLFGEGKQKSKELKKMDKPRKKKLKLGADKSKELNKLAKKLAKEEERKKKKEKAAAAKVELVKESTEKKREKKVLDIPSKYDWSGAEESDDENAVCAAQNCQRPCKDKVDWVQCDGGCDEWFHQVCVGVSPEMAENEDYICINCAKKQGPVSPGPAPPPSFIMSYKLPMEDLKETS

For `Cc1c(C(C)C)c(=O)n2ncc(C#N)c2n1C` [Example 196], under setting [1], the IC50 worked out at 47 nM.
The compound `CC(C)c1c[nH]c2c(C#N)cnn2c1=O` [Example 197] displayed an IC50 of 29 nM.
For the compound `CC(C)c1cn(C)c2c(C#N)cnn2c1=O` [Example 198], the IC50 under setting [1] is 610 nM.
Take `CCOC(=O)c1c(CC)c(=O)n2ncc(C#N)c2n1C` [Example 199]: the IC50 under setting [1] came out at 180 nM.
Same read-out and setting: the result for `CCc1c(C(=O)O)n(C)c2c(C#N)cnn2c1=O` [Example 200] reads 900 nM.
In the case of `CCc1c(C(N)=O)[nH]c2c(C#N)cnn2c1=O` [Example 201], the IC50 under setting [1] is 29 nM.
As for `CCc1c(-c2cc[nH]c2)[nH]c2c(C#N)cnn2c1=O` [Example 202], the IC50 under setting [1] turned out to be 6 nM.
The same measure, in the same setting: the result for `CC(C)c1c(-c2cc[nH]c2)[nH]c2c(C#N)cnn2c1=O` [Example 203] reads 11 nM.
With `CC(C)c1c(-c2ccc3c(c2)OC(F)(F)O3)[nH]c2c(C#N)cnn2c1=O` [Example 204], the IC50 under setting [1] worked out at 19 nM.
For `CC(C)c1c(-c2ccc(C(N)=O)c(F)c2)[nH]c2c(C#N)cnn2c1=O` [Example 205], under setting [1], the IC50 was 23 nM.
Same read-out and setting: the result for `CC(C)c1c(-c2ccc(S(C)(=O)=O)c(F)c2)[nH]c2c(C#N)cnn2c1=O` [Example 206] reads 21 nM; that for `CC(C)c1c(-c2ccc(OC(F)(F)F)c(Cl)c2)[nH]c2c(C#N)cnn2c1=O` [Example 207], 33 nM.
Same read-out and setting: the value for `CC(C)c1c(-c2cc(F)cc(C(N)=O)c2)[nH]c2c(C#N)cnn2c1=O` [Example 208] was 9 nM; that for `COc1ccc(-c2[nH]c3c(C#N)cnn3c(=O)c2C(C)C)cc1CO` [Example 209] was 18 nM.
On to `CC(C)c1c(-c2ccn(S(C)(=O)=O)c2)[nH]c2c(C#N)cnn2c1=O` [Example 210], for which the IC50 under setting [1] worked out at 12 nM.
In the case of `CC(C)c1c(-c2ccn(C)c2)[nH]c2c(C#N)cnn2c1=O` [Example 211], the IC50 under setting [1] is 24 nM.
Still for that read-out and setting: the result for `CC(C)c1c(-c2cc3ccccc3[nH]2)[nH]c2c(C#N)cnn2c1=O` [Example 212] reads 8 nM; that for `CC(C)c1c(NC(=O)C2CC2)[nH]c2c(C#N)cnn2c1=O` [Example 213], 18 nM.
Turning to `CC(C)c1c(NC(=O)c2ccccc2)[nH]c2c(C#N)cnn2c1=O` [Example 214], the half-maximal inhibitory concentration (IC50) under setting [1] came to 26 nM.
Same read-out and setting: the result for `N#Cc1cnn2c(=O)cc(-c3cccc(Br)c3)[nH]c12` [Example 215] reads 410 nM; that for `N#Cc1cnn2c(=O)c(Cl)c(-c3ccccc3)[nH]c12` [Example 216], 20 nM; that for `Cc1[nH]c2c(C#N)cnn2c(=O)c1-c1ccccc1` [Example 217], 2100 nM.
As for `Cn1c(-c2ccccc2)c(Br)c(=O)n2ncc(C#N)c12` [Example 218], the IC50 under setting [1] was 8000 nM.
On the same count and under the same terms, the result for `Cn1c(-c2ccccc2)c(Cl)c(=O)n2ncc(C#N)c12` [Example 219] reads 4300 nM.
Same read-out and setting: the value for `Cc1[nH]c2c(C#N)cnn2c(=O)c1Sc1ccccc1Cl` [Example 220] was 21000 nM; that for `Cc1c(-c2ccccc2)c(=O)n2ncc(C#N)c2n1C` [Example 221] was 25000 nM.
Same read-out and setting: the value for `N#Cc1cnn2c(=O)c(CCF)c(-c3ccccc3)[nH]c12` [Example 222] was 12 nM.
As to `C=CCc1c(-c2ccccc2)[nH]c2c(C#N)cnn2c1=O` [Example 223], the 50% inhibitory concentration (IC50) under setting [1] was 9 nM.
`C=C(C)c1c(-c2ccccc2)[nH]c2c(C#N)cnn2c1=O` [Example 224] came in with an IC50 of 25 nM.
Take `CC#CCc1c(-c2ccccc2)[nH]c2c(C#N)cnn2c1=O` [Example 225]: the IC50 under setting [1] turned out to be 5400 nM.
In the case of `Cn1c(-c2ccccc2)c(C2CC2)c(=O)n2ncc(C#N)c12` [Example 226], the IC50 under setting [1] amounted to 370 nM.
The same measure, in the same setting: the result for `CCc1c(-c2cccc(-c3cnn(C)c3)c2)[nH]c2c(C#N)cnn2c1=O` [Example 227] reads 13 nM; that for `CCc1c(-c2cccc(-c3cnn(C(C)C)c3)c2)[nH]c2c(C#N)cnn2c1=O` [Example 228], 23 nM; that for `Cn1c(-c2ccccc2)c(-c2ccncc2)c(=O)n2ncc(C#N)c12` [Example 229], 9600 nM.
In the case of `CCc1c(-c2ccc(-c3ccccc3)cc2)[nH]c2c(C#N)cnn2c1=O` [Example 230], the IC50 under setting [1] amounted to 9 nM.
Same read-out and setting: the value for `C/C=C/Cc1c(-c2ccccc2)[nH]c2c(C#N)cnn2c1=O` [Example 231] was 170 nM.
For the compound `CCc1c(-c2ccc(Nc3ccc(F)cc3)cc2)[nH]c2c(C#N)cnn2c1=O` [Example 232], under setting [1], the IC50 came to 19 nM.
With `CCc1c(-c2cccc(NC(=O)OC(C)(C)C)c2)[nH]c2c(C#N)cnn2c1=O` [Example 233], the IC50 under setting [1] came out at 20 nM.
With `N#Cc1cnn2c(=O)c(I)c(-c3ccccc3)[nH]c12` [Example 234], the IC50 under setting [1] came out at 15 nM.
Take `C#CC(C)c1c(-c2ccccc2)[nH]c2c(C#N)cnn2c1=O` (centres unmarked) [Example 235]: the IC50 under setting [1] stood at 14 nM.
On the same count and under the same terms, the value for `CCC(C)c1c(-c2ccccc2)[nH]c2c(C#N)cnn2c1=O` (centres unmarked) [Example 236] was 18 nM; that for `CC(=O)N1CC=C(c2[nH]c3c(C#N)cnn3c(=O)c2C(C)C)CC1` [Example 237] was 78 nM.
Still for that read-out and setting: the value for `CCC(=O)N1CC=C(c2[nH]c3c(C#N)cnn3c(=O)c2C(C)C)CC1` [Example 238] was 49 nM.
Take `C=CC(=O)N1CC=C(c2[nH]c3c(C#N)cnn3c(=O)c2C(C)C)CC1` [Example 239]: the IC50 under setting [1] came to 21 nM.
On to `CC(C)c1c(C2=CCN(C)CC2)[nH]c2c(C#N)cnn2c1=O` [Example 240], for which the IC50 under setting [1] is 50 nM.
Still for that read-out and setting: the value for `Cc1nc(Cn2cc(-c3[nH]c4c(C#N)cnn4c(=O)c3C(C)C)cn2)cs1` [Example 241] was 13 nM.
In the case of `CC(=O)NCCn1cc(-c2[nH]c3c(C#N)cnn3c(=O)c2C(C)C)cn1` [Example 242], the IC50 under setting [1] stood at 27 nM.
Same read-out and setting: the result for `CC(C)c1c(-c2cc(Cl)cc(Cl)c2)[nH]c2c(C#N)cnn2c1=O` [Example 243] reads 20 nM.
Still for that read-out and setting: the result for `CC(C)c1c(-c2ccc(S(C)(=O)=O)cc2F)[nH]c2c(C#N)cnn2c1=O` [Example 244] reads 21 nM; that for `CCC(C)(C)n1cc(-c2[nH]c3c(C#N)cnn3c(=O)c2C(C)C)cn1` [Example 245], 46 nM; that for `CC(C)c1c(-c2ccc(F)c(Cl)c2)[nH]c2c(C#N)cnn2c1=O` [Example 246], 22 nM.
Still for that read-out and setting: the value for `CC(C)c1c(-c2cccc(CCN3CCOCC3)c2)[nH]c2c(C#N)cnn2c1=O` [Example 247] was 15 nM; that for `CC(C)c1c(-c2cccc(CCN(C)C)c2)[nH]c2c(C#N)cnn2c1=O` [Example 248] was 69 nM.
As for `CC(CO)c1c(-c2ccccc2)[nH]c2c(C#N)cnn2c1=O` (centres unmarked) [Example 249], under setting [1], the IC50 was 30 nM.
As to `CC(=O)NCCCCc1c(-c2ccccc2)[nH]c2c(C#N)cnn2c1=O` [Example 250], the IC50 under setting [1] is 5700 nM.
On to `CC(=O)NCCCc1c(-c2ccccc2)[nH]c2c(C#N)cnn2c1=O` [Example 251], for which, under setting [1], the IC50 was 8000 nM.
Same read-out and setting: the value for `N#Cc1cnn2c(=O)c(CCCCN)c(-c3ccccc3)[nH]c12` [Example 252] was 7630 nM.
`CC(C)c1c(-c2cnn(C(C)c3cscn3)c2)[nH]c2c(C#N)cnn2c1=O` (centres unmarked) [Example 253]: the IC50 under setting [1] was 13 nM.
Turning to `CC(C)c1c(-c2cnn(C3CCOCC3)c2)[nH]c2c(C#N)cnn2c1=O` [Example 254], the half-inhibitory concentration (IC50) under setting [1] is 33 nM.
Same read-out and setting: the result for `COc1cc(-c2[nH]c3c(C#N)cnn3c(=O)c2C(C)C)ccc1C(F)(F)F` [Example 255] reads 35 nM; that for `COC(=O)c1cc(-c2[nH]c3c(C#N)cnn3c(=O)c2C(C)C)ccc1Cl` [Example 256], 15 nM.
Take `CC(C)c1c(-c2ccc(OC(F)(F)F)cc2)[nH]c2c(C#N)cnn2c1=O` [Example 257]: half-maximal inhibition (IC50) required 37 nM.
Take `Cc1cc(-c2[nH]c3c(C#N)cnn3c(=O)c2C(C)C)ccc1OC(F)(F)F` [Example 258]: the IC50 under setting [1] was found to be 44 nM.
For `CC(C)c1c(-c2ccc(C3CC3)c(C(F)(F)F)c2)[nH]c2c(C#N)cnn2c1=O` [Example 259], under setting [1], the IC50 is 43 nM.
Still for that read-out and setting: the value for `CC(C)c1c(-c2ccc3c(c2)CC(C)(C)O3)[nH]c2c(C#N)cnn2c1=O` [Example 260] was 36 nM; that for `COc1cc(OC)cc(-c2[nH]c3c(C#N)cnn3c(=O)c2C(C)C)c1` [Example 261] was 31 nM; that for `CC(C)c1c(-c2ccc(F)c(F)c2)[nH]c2c(C#N)cnn2c1=O` [Example 262] was 21 nM.
On the same count and under the same terms, the value for `CC(C)c1c(-c2ccc(-c3ccccc3)cc2)[nH]c2c(C#N)cnn2c1=O` [Example 263] was 28 nM; that for `CC(C)c1c(-c2cc(F)cc(Cl)c2)[nH]c2c(C#N)cnn2c1=O` [Example 264] was 21 nM.
For `CC(C)c1c(-c2cc(C(F)(F)F)cc(C(F)(F)F)c2)[nH]c2c(C#N)cnn2c1=O` [Example 265], under setting [1], the IC50 was 40 nM.
On the same count and under the same terms, the result for `COc1cc(F)cc(-c2[nH]c3c(C#N)cnn3c(=O)c2C(C)C)c1` [Example 266] reads 29 nM; that for `CC(C)c1c(-c2cccc(C(N)=O)c2)[nH]c2c(C#N)cnn2c1=O` [Example 267], 9.8 nM.
On to `CC(C)c1c(-c2ccc(OCC3CC3)cc2)[nH]c2c(C#N)cnn2c1=O` [Example 268], for which, under setting [1], the IC50 worked out at 23 nM.
With `CC(C)c1c(-c2cc(F)cc(NC(=O)OCc3ccccc3)c2)[nH]c2c(C#N)cnn2c1=O` [Example 269], the IC50 under setting [1] was 19 nM.
On to `CC(C)c1c(-c2cccc(-n3cccn3)c2)[nH]c2c(C#N)cnn2c1=O` [Example 270], for which, under setting [1], the IC50 was 13 nM.
Turning to `CC(C)c1c(-c2cnn(C3CCCC3O)c2)[nH]c2c(C#N)cnn2c1=O` (centres unmarked) [Example 271], the IC50 under setting [1] was 24 nM.
For the compound `CNS(=O)(=O)c1cccc(-c2[nH]c3c(C#N)cnn3c(=O)c2C(C)C)c1` [Example 273], the IC50 under setting [1] was determined as 23 nM.
As to `CC(C)c1c(-c2ccc(C(C)(C)O)cc2)[nH]c2c(C#N)cnn2c1=O` [Example 274], the IC50 under setting [1] came out at 73 nM.
Same read-out and setting: the value for `CC(C)c1c(-c2ccnc(C(F)(F)F)c2)[nH]c2c(C#N)cnn2c1=O` [Example 275] was 34 nM; that for `CC(C)c1c(-c2ccc(Oc3ccccc3)nc2)[nH]c2c(C#N)cnn2c1=O` [Example 276] was 35 nM.

In general, IC50 refers to the concentration that gives 50% inhibition.
